Source: ChEMBL document CHEMBL1909046, “DrugMatrix in vitro pharmacology data”
pIC50, pKi: −log10 of the molar value.

Experiments:
[1] = target: Sodium-dependent noradrenaline transporter (Homo sapiens, UniProt P23975); test: DRUGMATRIX: Norepinephrine Transporter radioligand binding (ligand: [125I] RTI-55); type: cell membranes, MDCK, Membrane; details: mdck; Not Active = under 50% inhibition at 10 µM
[2] = target: T1, 5-hydroxytryptamine receptor 2C (Homo sapiens, UniProt P28335); test: DRUGMATRIX: Serotonin (5-Hydroxytryptamine) 5-HT2C radioligand binding (ligand: [3H] Mesulergine); type: cell membranes, CHO-K1, Membrane; details: cho-k1; Not Active = under 50% inhibition at 10 µM
T1 sequence (P28335 whole entry): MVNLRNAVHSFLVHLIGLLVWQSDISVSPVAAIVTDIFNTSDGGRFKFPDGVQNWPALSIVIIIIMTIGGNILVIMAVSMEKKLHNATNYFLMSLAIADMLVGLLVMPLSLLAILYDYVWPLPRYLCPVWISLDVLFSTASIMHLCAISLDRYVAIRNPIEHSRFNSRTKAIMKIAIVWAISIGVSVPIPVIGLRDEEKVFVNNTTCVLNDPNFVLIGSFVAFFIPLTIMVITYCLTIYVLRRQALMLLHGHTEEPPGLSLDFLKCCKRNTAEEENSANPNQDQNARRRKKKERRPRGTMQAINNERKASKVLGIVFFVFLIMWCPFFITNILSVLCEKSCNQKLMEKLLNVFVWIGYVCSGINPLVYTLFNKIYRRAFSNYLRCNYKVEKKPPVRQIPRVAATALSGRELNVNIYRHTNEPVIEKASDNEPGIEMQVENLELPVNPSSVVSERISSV

Substance-K receptor = target: T2, Substance-K receptor (Homo sapiens, UniProt P21452); type: cell membranes, CHO, Membrane; also: in other assays of this panel Not Active means under 50% inhibition at 10 µM
T2 sequence (P21452 whole entry): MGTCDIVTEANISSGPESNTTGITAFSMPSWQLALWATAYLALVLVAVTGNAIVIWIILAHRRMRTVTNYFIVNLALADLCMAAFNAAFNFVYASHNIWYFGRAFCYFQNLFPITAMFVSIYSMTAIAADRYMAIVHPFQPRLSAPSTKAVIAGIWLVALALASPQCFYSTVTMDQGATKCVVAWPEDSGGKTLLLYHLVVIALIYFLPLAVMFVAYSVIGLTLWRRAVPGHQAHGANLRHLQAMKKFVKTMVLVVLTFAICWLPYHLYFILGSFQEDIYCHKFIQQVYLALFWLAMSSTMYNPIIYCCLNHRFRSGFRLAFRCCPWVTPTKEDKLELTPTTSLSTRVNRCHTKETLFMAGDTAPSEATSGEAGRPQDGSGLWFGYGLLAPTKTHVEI

[3] = DRUGMATRIX: GABAA, Muscimol, Central radioligand binding (ligand: [3H] Muscimol); type: cell membranes, Rattus norvegicus, Wistar, Brain, Membrane; details: Not Active = under 50% inhibition at 10 µM
Histamine H2 receptor = Histamine H2 receptor (Homo sapiens, UniProt P25021); type: cell membranes, CHO-K1, Membrane; details: cho-k1; also: in other assays of this panel Not Active means under 50% inhibition at 10 µM
Sequence of Histamine H2 receptor (P25021 whole entry): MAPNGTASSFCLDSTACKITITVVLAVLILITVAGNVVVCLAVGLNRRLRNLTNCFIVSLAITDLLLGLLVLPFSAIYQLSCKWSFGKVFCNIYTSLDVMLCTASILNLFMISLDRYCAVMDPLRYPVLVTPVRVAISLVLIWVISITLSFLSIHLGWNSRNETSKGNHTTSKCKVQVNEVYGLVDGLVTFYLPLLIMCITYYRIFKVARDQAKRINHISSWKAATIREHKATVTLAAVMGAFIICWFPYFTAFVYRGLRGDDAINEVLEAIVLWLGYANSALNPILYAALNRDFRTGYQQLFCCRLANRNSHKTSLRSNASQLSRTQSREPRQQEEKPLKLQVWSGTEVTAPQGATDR

Melanocortin receptor 3 = Melanocortin receptor 3 (Homo sapiens, UniProt P41968); type: cell membranes, Membrane; details: hek293; also: in other assays of this panel Not Active means under 50% inhibition at 10 µM
Sequence of Melanocortin receptor 3 (P41968 whole entry): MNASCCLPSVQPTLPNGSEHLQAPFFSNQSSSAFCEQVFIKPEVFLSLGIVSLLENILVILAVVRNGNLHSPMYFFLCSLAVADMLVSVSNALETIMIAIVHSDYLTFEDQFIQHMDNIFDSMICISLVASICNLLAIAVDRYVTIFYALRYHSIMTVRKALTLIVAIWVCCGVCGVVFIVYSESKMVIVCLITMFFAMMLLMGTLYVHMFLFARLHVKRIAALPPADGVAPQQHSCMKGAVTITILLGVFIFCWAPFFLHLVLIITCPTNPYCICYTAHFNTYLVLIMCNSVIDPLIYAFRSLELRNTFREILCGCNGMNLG

Cathepsin G = target: T3, Cathepsin G (Homo sapiens, UniProt P08311); type: tissue-based; details: neutrophil;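 also: inhibition of Cathepsin G enzyme activity, tested on an AMC-conjugated peptide substrate; in other assays of this panel Not Active means under 50% inhibition at 10 µM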
T3 sequence (P08311 whole entry): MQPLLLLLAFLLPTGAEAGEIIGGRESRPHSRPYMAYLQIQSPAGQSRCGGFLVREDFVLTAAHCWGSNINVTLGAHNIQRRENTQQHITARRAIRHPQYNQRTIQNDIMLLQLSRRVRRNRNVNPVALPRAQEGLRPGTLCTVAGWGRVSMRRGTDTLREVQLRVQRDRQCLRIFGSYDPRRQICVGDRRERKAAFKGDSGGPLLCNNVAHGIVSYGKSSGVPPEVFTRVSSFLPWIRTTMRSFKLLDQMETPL

Sequence of Sodium-dependent noradrenaline transporter (P23975 whole entry): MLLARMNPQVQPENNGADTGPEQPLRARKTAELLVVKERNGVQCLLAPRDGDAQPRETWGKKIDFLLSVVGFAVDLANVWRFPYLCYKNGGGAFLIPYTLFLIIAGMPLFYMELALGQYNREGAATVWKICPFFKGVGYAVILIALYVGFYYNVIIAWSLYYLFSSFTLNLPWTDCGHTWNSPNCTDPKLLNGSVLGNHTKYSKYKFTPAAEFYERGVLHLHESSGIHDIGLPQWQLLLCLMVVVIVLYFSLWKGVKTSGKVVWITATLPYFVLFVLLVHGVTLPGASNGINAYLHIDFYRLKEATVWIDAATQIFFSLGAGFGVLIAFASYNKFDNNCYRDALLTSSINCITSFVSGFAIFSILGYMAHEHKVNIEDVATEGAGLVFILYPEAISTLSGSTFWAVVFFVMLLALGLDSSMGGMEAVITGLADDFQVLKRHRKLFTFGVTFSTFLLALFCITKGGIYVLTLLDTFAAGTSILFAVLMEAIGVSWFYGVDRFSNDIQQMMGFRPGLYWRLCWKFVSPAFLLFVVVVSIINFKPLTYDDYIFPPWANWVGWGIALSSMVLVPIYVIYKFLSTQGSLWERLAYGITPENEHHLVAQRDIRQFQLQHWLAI

Molecule	IC50 [1]	IC50 [2]	IC50 (Substance-K receptor; cho)	IC50 [3]	Ki [3]	IC50 (Histamine H2 receptor)	IC50 (Melanocortin receptor 3)	IC50 (Cathepsin G)	Ki [1]	Ki [2]	Ki (Substance-K receptor; cho)	Ki (Histamine H2 receptor)	Ki (Melanocortin receptor 3)	Ki (Cathepsin G)	pIC50 (Substance-K receptor; read-out: IC50)	pKi (Substance-K receptor; read-out: Ki)
CCOC(=O)[C@H](CCc1ccccc1)N[C@@H](C)C(=O)N1CCC[C@H]1C(=O)O	Not Active	Not Active	Not Active	Not Active	Not Active	Not Active	Not Active	Not Active								
POLYVINYL ALCOHOL	Not Active	Not Active	Not Active	Not Active	Not Active	Not Active	Not Active	Not Active	Not Active	Not Active	Not Active	Not Active	Not Active	Not Active		
CCC[C@@H]1C[C@@H](C(=O)N[C@@H]([C@H]2O[C@H](SC)[C@H](O)[C@@H](O)[C@H]2O)[C@H](C)Cl)N(C)C1 [CLINDAMYCIN]	Not Active	Not Active	Not Active	Not Active	Not Active	Not Active	Not Active	Not Active								
CN(Cc1cnc2nc(N)nc(N)c2n1)c1ccc(C(=O)N[C@@H](CCC(=O)O)C(=O)O)cc1 [METHOTREXATE]	Not Active	Not Active	Not Active	Not Active	Not Active	Not Active	Not Active	Not Active								
CO[C@@]1(NC(=O)CSCC#N)C(=O)N2C(C(=O)O)=C(CSc3nnnn3C)CS[C@@H]21 [CEFMETAZOLE]	Not Active	Not Active	Not Active	Not Active	Not Active	Not Active	Not Active	Not Active								
C[C@@H]1CC[C@H]2[C@@H](C)C(=O)O[C@@H]3O[C@@]4(C)CC[C@@H]1[C@]32OO4 [ARTEMISININ]	Not Active	Not Active	Not Active	Not Active	Not Active	Not Active	Not Active	Not Active								
CC(C(=O)O)c1ccc(CC2CCCC2=O)cc1 (centres undefined) [LOXOPROFEN]	Not Active	Not Active	Not Active	Not Active	Not Active	Not Active	Not Active	Not Active								
CCCCCC[C@H]1C(=O)O[C@H](C)[C@H](NC(=O)c2cccc(NC=O)c2O)C(=O)O[C@@H](C)[C@@H]1OC(=O)CC(C)C [ANTIMYCIN A]	Not Active	Not Active	Not Active	Not Active	Not Active	Not Active	Not Active	Not Active								
C#C[C@]1(O)CC[C@H]2[C@@H]3CCc4cc(O)ccc4[C@H]3CC[C@@]21C [ETHINYL ESTRADIOL]		Not Active	Not Active	Not Active	Not Active	Not Active	Not Active	Not Active								
C=C1/C(=C\C=C2/CCC[C@]3(C)[C@@H]([C@H](C)CCCC(C)C)CC[C@@H]23)C[C@@H](O)C[C@@H]1O [ALFACALCIDOL]		Not Active	Not Active	Not Active	Not Active	Not Active	Not Active	Not Active								
C[C@]12CCC(=O)C=C1CC[C@@H]1[C@@H]2[C@@H](O)C[C@@]2(C)[C@H]1CC[C@]2(O)C(=O)CO [HYDROCORTISONE]		Not Active	Not Active	Not Active	Not Active	Not Active	Not Active	Not Active								
C#C[C@]1(O)CC[C@H]2[C@@H]3CCC4=Cc5oncc5C[C@]4(C)[C@H]3CC[C@@]21C [DANAZOL]		Not Active		Not Active	Not Active	Not Active	Not Active	Not Active							4.58	5.05
